Data set [1] is described as follows: pH measurement of the solution. In kind it is physicochemical. The protocol: (§1) The peroxide concentration is determined by a potassium permanganate titration procedure and the devices used for the measurement of pH, ORP and conductivity are a WTW 537, a Testo 230 ORP and a HANNA EC device, respectively.
A short description of data set [2]: electrical conductivity measurement of the solution. In kind it is physicochemical. The protocol: as §1
Data set [3] in a line: oxidation-reduction potential (ORP) measurement of the solution. The class given is physicochemical. As for the experimental part: as §1
The next data set has as its system Escherichia coli. The data set is described as follows: bactericidal suspension test conform EN 1040 (Example 1). The class given is cell-based. As to conditions: after 5 minutes. As for the experimental part: (§2) In a controlled bactericidal suspension test conform European Norm for testing of basic bactericidal activity of chemical disinfectants and antiseptics EN 1040, a 1 ml McFarland standard 0.5 (10^8 microorganisms per ml) was mixed 1:8 with the activated peroxide solution and 1 ml milli-Q water. After 10 minutes, Staphylococcus aureus was killed 100%, while Escherichia coli, Salmonella typhimurium, Rhodotorula rubra and Pseudomonas aeruginosa were all killed 100% already after 5 minutes. A 100% kill typically is shown by at least a log 5 reduction.

Another data set relates to Salmonella typhimurium. Described as above. Particulars: after 5 minutes. In kind it is cell-based. As for the experimental part: as §2
A further data set deals with Pseudomonas aeruginosa. Described as above. As to conditions: after 5 minutes. In kind it is cell-based. The protocol:
as §2

In the next data set the test system is Rhodotorula rubra. Described as above. The class given is cell-based. Particulars: after 5 minutes. The protocol: as §2
A further data set concerns Staphylococcus aureus. The description is as above. In kind it is cell-based. The protocol: as §2
Data set [4] deals with Corynebacterium minitissium. The data set is described as follows: test of corona treated solution against strains of bacteria (Example 3). The class given is cell-based. Particulars: after 5 minutes. The protocol:
(§3) The corona treated solution was then tested against several strains of bacteria and compared to untreated solutions of 1% hydrogen peroxide.

Another data set deals with Lysteria. Described as above. In kind it is cell-based. As to conditions: after 5 minutes. As for the experimental part: as §3
Another data set concerns E. coli. The description is as above. The class given is cell-based. Particulars: after 5 minutes. As for the experimental part: as §3

Read-outs that look alike come from different tables or passages of the source.

On to `OO` [Example 1 solution before activation, hydrogen peroxide], for which the “pH of the solution” value in data set [1] amounted to 5.8.

For `OO` [0.5% H2O2, hydrogen peroxide], in data set [2], the conductivity result is “approximately 21 μS/cm”. Besides, the “pH of the solution” value in [1] is on record as “approximately 4.6”. Moreover, the “ORP of the solution” value in data set [3] is recorded as 374 mV.

In the case of `OO` [5% H2O2, hydrogen peroxide], the conductivity in data set [2] stood at 90 μS/cm. Also, the “pH of the solution” value in data set [1] is “approximately 3.7”. Besides, the “ORP of the solution” value in data set [3] was 428 mV.

For the molecule `OO` [10% H2O2, hydrogen peroxide], the conductivity in data set [2] worked out at 110 μS/cm. Also, in data set [1], the “pH of the solution” value was “approximately 3.3”. In [3], the “ORP of the solution” value is given as 446 mV.

`OO` [0.1% H2O2, hydrogen peroxide] registered a conductivity in data set [2] of 20 μS/cm. Besides, the “pH of the solution” value in [1] is “approximately 4.9”. The “ORP of the solution” value in data set [3] turned out to be 355 mV.

`OO` [Example 3 starting solution, hydrogen peroxide] gave a conductivity in [2] of 17.8 microSiemens/cm. Besides, in [1], the “pH of the solution” value turned out to be 4.5. Moreover, in [3], the “ORP of the solution” value is recorded as 380 mV.

On to `OO` [1.6% common hydrogen peroxide solution, hydrogen peroxide], for which the killed in the data set with Escherichia coli, with Pseudomonas aeruginosa and with Rhodotorula rubra was below 100% in each case. The molecule further displayed a killed / reduction in the data set on Salmonella typhimurium of 70%. The reduction result with Staphylococcus aureus (after 5 minutes) is listed as “none”; with Staphylococcus aureus (after 20 minutes), 50%.

Turning to `OO` [standard 1% hydrogen peroxide, hydrogen peroxide], the reduced with log entry (in [4]; in the data set on Lysteria; in the data set with E. coli) was “no countable reduction” throughout. In data set [2] (listed as 1% H2O2), this molecule registered a conductivity of 30 μS/cm. Moreover, the “pH of the solution” value in data set [1] (listed as 1% H2O2) is reported as “approximately 4.4”. In addition, the “ORP of the solution” value in [3] (listed as 1% H2O2) is 390 mV.

Consider `OO` [3% H2O2, hydrogen peroxide], for which the conductivity in data set [2] is reported as 60 μS/cm. Besides, the “pH of the solution” value in data set [1] is given as “approximately 3.9”. The “ORP of the solution” value in data set [3] was found to be 411 mV.
